Measured values as given in patent US7736630B2, “Products for preventing penetration into the skin” (priority 2002, dated 2010).
Read-outs that look alike come from different tables or passages of the source.

Test: Skin permeation and skin accumulation in Franz diffusion cells
Assay type: in vitro ADME, nude mice (CD1)
Procedure: The permeation of pure OMC and Di(4-methoxycinnamoyl)jojobadiol (two —OH groups esterified) was measured by using dorsal skin of male, 7 weeks old, nude mice (CD1, Weizmann Institute, Israel).
The experiments were carried out for 24 hours at 37° C. in Franz diffusion cells. Samples of 200 μl were taken at 1, 2, 4, 6, 8 and 24 hours. 10 mg of each compound were applied on each skin (area—1.77 cm^2). The receiver compartment contained EtOH:H2O (1:1). At the end of the experiment the skin was cleaned and the skins were extracted with 10 ml EtOH. The amounts of the OMC and derivative Di(4-methoxycinnamoyl)jojobadiol were assayed by HPLC.

penetration/permeation across the skin (in words) | amount penetrated as % of the dose applied on the skin (male, CD1 nude, mouse, 24 h) | amount which penetrated into the skin at the end of permeation experiment (male, CD1 nude, mouse, 24 h) | amount accumulated in the skin at the end of experiment (10 mg on 1.77 cm^2 skin, 24 hours, 37° C., skin extracted with 10 ml EtOH, FIG. 7) | penetration/permeation across the skin (in words) (24 hours in vitro permeation, lowest detectable concentration of the derivative by HPLC 0.8 μg/ml, FIG. 6) | penetration/permeation across the skin (in words) (24 hours in vitro permeation, lowest detectable concentration of the derivative by HPLC 0.8 μg/ml, FIG. 6, listed as di(4-methoxy-cinnamoyl)jojobadiol) | skin accumulation, OMC compared with Di(4-methoxycinnamoyl)jojobadiol (end of 24 hours experiment, FIG. 7) | Molecule
permeates to the skin | 8.76% | 876 ± 235 µg |  |  |  |  | CCCCC(CC)COC(=O)C=Cc1ccc(OC)cc1 (stereo not shown) [OMC, octylmethoxycinnamate, reference compound]
 |  |  | 900 ± 359 µg | no penetration | does not | about third of the amount of the OMC | Di(4-methoxycinnamoyl)jojobadiol
